Read-outs that look alike come from different tables or passages of the source.
Key:
[1] = target: T1, recombinant RfBGluc-1 β-glucosidase (Reticulitermes flavipes, UniProt D9ILU1); assay: Activity of recombinant RfBGluc-1 towards natural substrates, endpoint glucose detection assay; format: biochemical
T1 sequence (D9ILU1 18-495): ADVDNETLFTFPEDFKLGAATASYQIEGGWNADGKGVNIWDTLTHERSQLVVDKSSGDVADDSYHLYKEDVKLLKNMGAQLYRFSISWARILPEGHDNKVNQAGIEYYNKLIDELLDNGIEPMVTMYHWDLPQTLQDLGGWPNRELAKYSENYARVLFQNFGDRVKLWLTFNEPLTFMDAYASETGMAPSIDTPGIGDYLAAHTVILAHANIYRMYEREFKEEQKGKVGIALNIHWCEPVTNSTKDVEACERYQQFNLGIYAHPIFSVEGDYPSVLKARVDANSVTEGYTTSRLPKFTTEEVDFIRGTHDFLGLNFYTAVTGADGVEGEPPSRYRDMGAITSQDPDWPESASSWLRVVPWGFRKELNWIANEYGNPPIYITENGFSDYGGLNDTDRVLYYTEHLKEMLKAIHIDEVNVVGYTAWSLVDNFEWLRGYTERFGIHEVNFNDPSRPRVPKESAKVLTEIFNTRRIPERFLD
Procedure: Natural carbohydrate substrates (Table 2) were tested in endpoint assays in which color development was enabled using 439-90901 glucose-mutarose detection reagent (Wako Chemical; Richmond, Va.). Assays were conducted in 125 μL for 5 min at room temperature as described above and stopped with the addition of 125 μL glucose detection reagent. After 1 min, the absorbance was read at 505 nm.

Cell-1 = settings: for effect on Cell-1 temperature stability: pre-incubation at 60° C. and 70° C., 0-60 min
Procedure: Thermal stability tests were conducted using 1.5% CMC in 100 mM sodium phosphate at the optimal pH of 7. Temperature-cofactor studies were performed using 1.5% CMC dissolved in 100 mM sodium phosphate (pH 7) alone, plus 4 mM EDTA (final concentration), or plus 10 mM calcium chloride (final concentration). Pre-incubations took place for 0-5 days at 25° C. or 0-60 min at 60° C. or 70° C.; reactions were terminated by the combination of adding stop solution and boiling for 10 min, and then assays were read at 25° C.
Calcium as a cofactor in β-1,4-endoglucanase Cell-1 hydrolytic activity and temperature stability: The effects of calcium on recombinant Cell-1 activity were investigated using calcium chloride as a calcium source and EDTA as a potential calcium chelator.

[2] = target: T1, recombinant RfBGluc-1 β-glucosidase; assay: Activity of recombinant RfBGluc-1 towards synthetic nitrophenol substrates, kinetic microplate assay; format: biochemical; settings: percent activity rankings based on Vmax; pNP-βD-Glucopyranoside = 100
Procedure: All initial characterization assays took place in 0.1 M sodium acetate buffer (pH 6) using 2 μL of recombinant enzyme preparation (=1.58 μg protein per assay) in a total reaction volume of 250 μL. Synthetic p-nitrophenol substrates (Table 1) were tested in direct kinetic assays using a microplate reader. Reactions were initiated by adding 248 μL assay buffer to 2 μL protein. Assays were read at 420 nm every 20 sec for 5 min to yield mean velocity data in mOD/min. Specific activity was determined with the p-nitrophenol extinction coefficient of 0.6605 mM^−1 cm^−1. All results were averaged from three independent replicates, each conducted in triplicate.

[3] = Recombinant Cell-3 exoglucanase activity in unpurified form; format: biochemical; settings: for activity toward pNPC relative to uninfected control larvae: homogenates of infected larvae
Description: Recombinant Cell-3 characterization: The recombinant Cell-3 protein (nucleotide sequence SEQ ID NO.: 3; amino acid sequence SEQ ID NO.: 4) was investigated in unpurified form. […] Other experiments investigating activity in crude homogenates over time and after repeated freeze-thaw cycles further verified reduced Cell-3 stability.

[4] = Glucose release from pine sawdust by recombinant enzymes and mixtures; format: biochemical; settings: 2% w/v, 18 hrs, 37° C., pH 7
Procedure: All reactions were performed in 0.1 M sodium acetate buffer containing 10 mM calcium chloride (pH 7). The two feedstock substrates were pine sawdust (=lignin+cellulose+hemicellulose) and beechwood xylan (=lignin+hemicellulose). Feedstocks were tested at 2% w/v (10 mg in 0.5 mL buffer). Reactions were run for 18 hrs at 37° C. with shaking at 220 rpm in vented 1.5 mL plastic tubes.
Protein volumes used per assay were 10 μL of each of the Cell-1, β-glucosidase, and Laccase 6 recombinant protein preparations. These loading volumes provided 8.5, 7.9 and 2.0 μg of each protein, respectively, per reaction. The storage buffer for Cell-1 and β-glucosidase was 0.1 M sodium acetate, 0.15 M sodium chloride, and 0.5 M calcium chloride (pH 5.8). The storage buffer for Laccase 6 was 0.1M boric acid, phosphoric acid, and acetic acid (pH 7.0).
Reactions were stopped after 18 hours by the addition of 10 μL of 0.2 Methylene-diamine tetra-acetic acid and centrifuged for 5 min at 16,000×g. Glucose detection was performed in triplicate on 125 μL aliquots of each reaction supernatant. The entire experiment was replicated three times. Glucose release was measured using the Autokit Glucose reagent kit (Wako Chemical, Richmond, Va.) at a volume of 125 μL per determination. Glucose was quantified based on absorbance at 505 nm relative to glucose standard curves. Standard curves were prepared in eight serial dilutions downward from 0.6 mM in sodium acetate-calcium chloride reaction buffer.

[5] = Characterisation of recombinant RfLacA and RfLacB isoforms; format: biochemical

## OC[C@H]1O[C@@H](O[C@H]2[C@H](O)[C@@H](CO)OC(O)[C@@H]2O)[C@H](O)[C@@H](O)[C@@H]1O (some centres unmarked) [Laminaribose]
[1]
  Activity (%): 34%

## OCc1ccccc1O[C@@H]1O[C@H](CO)[C@@H](O)[C@H](O)[C@H]1O [Salicin]
[1]
  Activity (%): 44%

## OC[C@H]1O[C@@](CO)(O[C@H]2O[C@H](CO)[C@@H](O)[C@H](O)[C@H]2O)[C@@H](O)[C@@H]1O [Sucrose]
[1]
  Activity (%): 0%

## [Ca+2].[Cl-].[Cl-] [calcium chloride]
Cell-1; incubations over a 5-day period at about 25° C.
  effect on Cell-1 CMC endoglucanase activity: slightly enhanced
Cell-1
  effect on Cell-1 temperature stability: stabilized/extended CMC hydrolysis activity over time
Cell-1; listed as calcium
  effect on Cell-1 temperature stability: improves Cell-1 temperature stability

## O=[N+]([O-])c1ccc(O[C@H]2OC[C@H](O)[C@H](O)[C@H]2O)cc1 [pNP-βL-Arabinopyranoside]
[2]
  Activity (%): 0%

## Cellobiose
[1]; percent activity rankings based on Vmax, cellobiose = 100
  Activity (%): 100%

B1: Cell-3: recombinant exoglucanase, amino acid sequence SEQ ID NO.: 4, investigated in unpurified form (protein)
chain: MVLCILLQWMQIGGKQKYPAFKPGAKYGRGYCDGQCPHDMKVSSGRANVDGWKPQDNDENSGNGKLGTCCWEMDIWEGNLVSQAYTVHAGSKSGQYECTGTQCGDTDSGERFKGTCDKDGCDFASYRWGATDYYGPGKTVDTKQPMTVVTQFIGDPLTEIKRVYVQGGKVINNSKTSNLGSVYDSLTEAFCDDTKQVTGDTNDFKAKGGMSGFSKNLDTPQVLVMSLWDDHTANMLWLDSTYPTDSTKPGAARGTCAVTSGDPKDVESKQANSQVVYSDIKFGPINSTYKAN
modifications: Reticulitermes flavipes; amino acid sequence exoglucanase (Cell-3)
[3]
  activity toward pNPC relative to uninfected control larvae: significantly higher activity
[3]; listed as recombinant Cell-3
  activity toward pNPC relative to uninfected control larvae: higher exoglucanase (cellulase) activity than do uninfected homogenates
[3]; pNPC activity in filtrates, over time and after freeze-thaw cycles
  stability of recombinant protein: reduced stability

B2: β-glucosidase: recombinant R. flavipes β-glucosidase, amino acid sequence SEQ ID NO.: 6 (protein)
chain: MRLQTVCFVIFVTAVFGADVDNETLFTFPEDFKLGAATASYQIEGGWNADGKGVNIWDKLTHERSQLVVDKSSGDVADDSYHLYKEDVKLLKNMGAQLYRFSISWARILPEGHDNKVNQAGIEYYNKLIDELLDNGIEPMVTMYHWDLPQTLQDLGGWPNRELAKYSENYARVLFQNFGDRVKLWLTFNEPLTFMDAYASETGMAPSIDTPGIGDYLAAHTVILAHANIYRMYEREFKEEQKGKVGIALNIHWCEPVTNSTKDVEACERYQQFNLGIYAHPIFSVEGDYPSVLKARVDANSVTEGYTTSRLPKFTTEEVDFIRGTHDFLGLNFYTAVTGADGVEGEPPSRYRDMGAITSQDPDWPQSASSWLRVVPWGFRKELNWIANEYGNPPIYITENGFSDYGGLNDTDRVLYYTEHLKEMLKANHIDEVNVVGYTTWRPVDNFEWLRGYTERFGIHEVNFNDPSRPRVPKESAKVLTEIFNTRRIPERFLD
modifications: Reticulitermes flavipes; amino acid sequence beta-glucosidase “contig 771”
[4]
  glucose release from pine sawdust (in words): No glucose release was detectable

B3: RfLacB: recombinant R. flavipes gut laccase isoform 2, clone Lac12, SEQ ID NO.: 12 (protein)
chain: VYRSDAYIMLPCVLLACAIGVASATSVLLNSYLQPNDDIDRNTYLLNAKSNNCARICNGTEAPKICYYQWTIENYVTLSEACDNCPLNVTACYNAQCITADGYERSILSVNRKLPGPSIEVCLRDRVIVDITNNMAGRTTSIHWHGVFQKGSQYMDGVPMVTQCTIHEGDTLRYDFIANNEGTHFWHSHDGLQKLDGVTGNLVVRVPKNFDPNGQLYDFDLPEHKIFISDWLHLSADDHFPGLRATNPGQDANSFLINGRGRTLIGTQSTNTPYAQINVQWGRRYRLRIVGSLCTVCPTQLTIDGHKITVIATDGNSVAPARVDSLIIYSGERYDVVLEATNTEGSYWIHLKGLVTCVGSRVYQLGVLQYENTTTNKLHALTPDPGYDGFPQPASYRVLNPENASCSIGSTGLCVTQLANSDPVPRDILTQLPDINYLLQFGFKIFDSRSFFKAYDRYFVSPFLDLVSSTVNNISSVSPPSPLLSQRGDVPDDVLCPTGADGLPQCPGGNSYCTCVHVIKIKLGALVQIILSDQTPKSGLNHPFHLHGHAFYVLGMGQYAAGQTAQDLLNSLKSNVSSVSPAPVLKDTIAVPSGGYAIIKFRPKNPGYWFLHCHFLYHVATGMSVVLQVGETSDYPPTPDGFPKCGSFTPPVNTN
modifications: Reticulitermes flavipes; amino acid sequence Laccase Lacc-12
[5]
  Results of RfLacB isoform compared with RfLacA against all substrates: statistically indistinguishable results to RfLacA
  oxidation of ABTS and syringaldazine: unable to oxidize

Source: US8445240B2, “Termite enzymes and uses thereof for in vitro conversion of lignin-containing materials to fermentable products” (University of Florida Research Foundation, Inc., priority 2009, dated 2013)
